From patent US5130327A, “Indole derivatives” (Consejo Superior de Investigaciones Cientificas, priority 1989, dated 1992)
Like-named read-outs stand apart in the source and are kept apart here.

Assays:
Bovine Brain MAO A = molecular target: T1, Bovine Brain MAO A (Bos taurus, UniProt P21398); test: In vitro inhibition of MAO from bovine brain mitochondria, tyramine as substrate (form A); assay type: biochemical; conditions: pI50 = -log [I50], molar
T1 construct: in vitro activity of MAO from bovine brain mitochondria; from tissue; host or cells: bovine brain mitochondria
T1 sequence (P21398 1-527): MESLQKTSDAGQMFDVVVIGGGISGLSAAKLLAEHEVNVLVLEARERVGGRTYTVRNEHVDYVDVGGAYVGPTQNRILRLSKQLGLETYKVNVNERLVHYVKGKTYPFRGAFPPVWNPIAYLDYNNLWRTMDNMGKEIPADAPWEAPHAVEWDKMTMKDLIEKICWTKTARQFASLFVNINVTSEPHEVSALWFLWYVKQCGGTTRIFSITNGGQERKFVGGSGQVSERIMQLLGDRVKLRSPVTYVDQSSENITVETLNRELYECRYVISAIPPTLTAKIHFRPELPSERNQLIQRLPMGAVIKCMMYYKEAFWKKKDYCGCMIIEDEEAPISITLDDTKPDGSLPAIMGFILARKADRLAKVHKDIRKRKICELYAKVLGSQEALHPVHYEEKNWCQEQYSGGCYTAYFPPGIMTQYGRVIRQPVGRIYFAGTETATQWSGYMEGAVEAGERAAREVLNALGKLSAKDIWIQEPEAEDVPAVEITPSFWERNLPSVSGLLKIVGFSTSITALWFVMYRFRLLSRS
From the text: (§1) The following table illustrates the structure of particular compounds of the invention (1). It also gives specific pI50 values where pI50 =-log [I50 ] where [I50 ] is the molar concentration of test compound which inhibits 50% of the in vitro activity of MAO from bovine brain mitochondria using tyramine as substrate.

rat cerebral MAO A and B = test: MAO inhibitory activity at the biochemical level (reversibility and selectivity)
From the text: To determine MAO inhibitory activity at the biochemical level the following tests are used:
1. "In vitro inhibition" of rat cerebral MAO A and B giving I50 values for the two forms of the enzyme. Male Wistar rats (200 g) were used. Brains were obtained by decapitation and were homogenized. As substrates of the enzymes ^14 C-5-hydroxytryptamine oxalate 54 mCi/mmol and ^14 C-β-phenylethylamine were used. The residual enzymatic activities were referred to the activities in absence of MAO inhibitor (100%).
2. "Ex vivo inhibition" of rat cerebral MAO A and B after single dosing.
This gives the degree of inhibition in vivo of both forms of the enzyme and variation of this inhibition with time after treatment with a single dose. The compounds were administered intraperitoneally to male Wistar rats (175 g.) at a dose of 5 mg/kg in 1 ml/kg (H2 O). Animals were sacrificed by decapitation 24 h. and 7 days after treatment and brains were removed and homogenized. Enzymatic activities determined in treated animals, were compared with the activities in control animals (100%).
3. "Ex vivo" inhibition of rat cerebral MAO A and B after repeated dosing.
Male Wistar rats (175 g) were used.
The compounds were administered once daily intraperitonally for 7 days at a dose of 0.5 and 1 mg/kg in 1 ml/kg […]. […]

5-HT receptors = test: Effects of chronic treatment on 5-HT2 receptors; assay type: in vivo; conditions: chronic administration in the rat
Procedure: (§2) Effects of chronic treatment on α2 -, β- and 5-HT2 receptors. The test compounds, at a dose of 10 mg/kg/day i.p., were administered for 21 days to Wistar male rats (250±2.4 g). After treatment the animals were killed, brains were dissected and cortices were scraped from the dorsal surface of the […]. ^3 H UK 14304, ^3 H Dihydroalprenalol and ^3 H Ketanserin were used as ligands in the binding studies.

[1] = tested on: cerebral β-adrenergic receptors; test: Effects of chronic treatment on β receptors; assay type: in vivo; conditions: chronic administration in the rat
Procedure: as §2

Bovine Brain MAO B = molecular target: T2, Bovine Brain MAO B (Bos taurus, UniProt P56560); test: In vitro inhibition of MAO from bovine brain mitochondria, tyramine as substrate (form B); assay type: biochemical; conditions: pI50 = -log [I50], molar; bovine brain mitochondria, tyramine as substrate
T2 construct: in vitro activity of MAO from bovine brain mitochondria; from tissue; host or cells: bovine brain mitochondria
T2 sequence (P56560 1-520): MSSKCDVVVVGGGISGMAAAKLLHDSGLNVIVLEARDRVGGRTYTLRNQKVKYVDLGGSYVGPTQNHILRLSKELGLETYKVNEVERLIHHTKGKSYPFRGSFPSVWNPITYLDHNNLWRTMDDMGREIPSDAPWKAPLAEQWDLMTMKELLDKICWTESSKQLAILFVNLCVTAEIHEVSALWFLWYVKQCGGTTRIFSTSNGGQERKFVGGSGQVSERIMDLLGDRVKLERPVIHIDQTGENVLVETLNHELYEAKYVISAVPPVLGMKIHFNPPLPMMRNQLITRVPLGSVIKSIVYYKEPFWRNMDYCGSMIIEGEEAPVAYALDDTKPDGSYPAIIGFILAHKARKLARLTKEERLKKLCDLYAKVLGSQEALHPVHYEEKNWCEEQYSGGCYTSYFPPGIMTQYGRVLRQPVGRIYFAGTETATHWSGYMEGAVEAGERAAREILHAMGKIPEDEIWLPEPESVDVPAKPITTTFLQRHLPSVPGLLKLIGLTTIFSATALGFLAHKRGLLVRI
From the text: as §1

[2] = Behavioural Despair (Porsolt's test); assay type: in vivo
Procedure: The pharmacological profile was carried out assessing the antidepressant activity with the following tests:
Behavioural Despair (Porsolt et al. Arch. Int. Pharmacodyn; 229:327-336, 1977),

α-adrenergic receptors = test: Effects of chronic treatment on α2 receptors; assay type: in vivo; conditions: chronic administration in the rat
Procedure: as §2

reuptake of 5-HT = test: Reuptake of 5-HT in vitro, crude synaptosomal preparation; assay type: biochemical, rat
Procedure: Influence on the reuptake of monoamines "in vitro" was also studied. The effect of the compounds on the reuptake of 5-HT noradrenaline and dopamine was studied using Wistar male rats (350±2.5 g). They were kept under controlled light and temperature conditions and fed "ad libitum" until killed. The animals were killed by decapitation and brains were frozen and stored at -20° C. prior to analysis. Brains were dissected on an ice-filled petri dish. The cortices for 5-HT and noradrenaline assay and striatum (including caudate nucleus, putamen and globus pallidus) for dopamine assay were immediately weighed and homogenized. […] All drugs used in the study were dissolved in the incubation medium in a concentration range 10^-4 to 10^-8 M and were preincubated with the crude synaptosomal preparation obtained from the treated brains, for 5 min. at 37° C. or 0° C. before the addition of the labelled substrate.

[3] = tested on: brain, duodenum and liver MAO A; test: In vivo inhibition of MAO A of different tissues after chronic treatment; parameters: species or system rat; conditions: cerebral vs intestinal or hepatic
Procedure: 4. "In vivo" inhibition of MAO A and B of different tissues after chronic treatment.
In order to evaluate the effect of compounds in a chronic treatment, the inhibitory activity on brain, duodenum and liver MAO A and B has been studied "in vivo". Wistar male rats were treated at two dose levels, 0.1 and 0.25 mg/kg i.p. for 15 and 21 days. Control rats received similar amounts of saline solution.

## C#CCN(C)Cc1cc2cc(OC)ccc2n1C [(l), N-methyl-N-propargyl-2-(1-methyl-5-methoxy-indolyl)methylamine]
Bovine Brain MAO A
  IC50: 0.00891 µM
Rat cerebral MAO A and B
  Type of MAO inhibition (reversibility, selectivity): irreversible and selective inhibitor of MAO A
5-HT receptors
  Modifications on 5-HT receptors: not statistically significant
[1]
  Number or affinity of cerebral β-adrenergic receptors: does not modify
Bovine Brain MAO B
  IC50: 0.891 µM
[2]; acute treatment, read-out: Porsolt's test MED, acute
  minimal effective dose: 50 mg/kg
[2]; chronic treatment, read-out: Porsolt's test MED, chronic
  minimal effective dose: 20 mg/kg
[2]; in vivo
  Persistence of activity in Porsolt's test: at least 24 hours
α-adrenergic receptors
  Modifications on α-adrenergic receptors: not statistically significant
Reuptake of 5-HT
  Inhibition of the reuptake of 5-HT: potent inhibitor
  Potency as inhibitor of 5-HT reuptake relative to chlorimipramine or imipramine: much higher
[3]
  MAO A inhibitory effect, comparison of tissues: higher on cerebral MAO A than on intestinal or hepatic MAO A
